# Measurements as given in US12396968B2, “Mitofusin activators having an endocyclic-bonded carbonyl group and methods for use thereof” (priority 2022, dated 2025).
# How the values were obtained:
# [1] = test system: mitofusin; experiment: Dose-response of mitofusin agonist fusogenicity (mitochondrial aspect ratio) in Mfn1- or Mfn2-deficient MEFs; format: cell-based, mouse; settings: Mfn1-KO or Mfn2-KO MEFs, compounds overnight, mitochondrial aspect ratio indexed to maximal response of Compound 35
# Experimental: Dose-response of mitofusin agonist fusogenicity was performed in Mfn1- or Mfn2-deficient MEFs (Mfn1-KO or Mfn2-KO MEFs) cultured at 37° C. and 5% CO2-95% air. Cells were seeded on day 1 in 6 well plates at a density of 2×10^4 cells per well and compounds added at 9 concentrations (0.5 nM-10 μM dissolved in DMSO) overnight. Mitochondria were then stained with MitoTracker Orange (200 nM; M7510; Invitrogen, Carlsbad, CA, USA). Nuclei were stained with Hoescht (10 μg/ml; Invitrogen, Thermo Fisher Scientific Cat: #H3570). Images were acquired at room temperature on a Nikon Ti Confocal microscope using a 60×1.3 NA oil-immersion objective in Krebs-Henseleit buffer (138 NaCl, […] pH: 7.2-7.5, and 1 mM CaCl2). Laser excitation was 549 nm with emission at 590 nm for MitoTracker Orange and excitation at 306 nm with emission at 405 nm for Hoescht. Images were analyzed using ImageJ and fusogenicity quantified as mitochondrial aspect ratio (length/width), and were indexed to the maximal response elicited by Compound 35, a known mitofusin activator. Response curves were interpolated using the sigmoidal model using Prism 8 software. EC50 values are reported as mean with 95% confidence limits for at least 3 independent experiments.
# (§1) Further testing details for the MFN activity and PAMPA are provided in U.S. Patent Applications 2020/0345668 and 2020/0345669, incorporated herein by reference above.
# [2] = Plasma protein binding by equilibrium dialysis, human; format: in vitro ADME; settings: read-out: Plasma Protein Binding (Bound %) Human (converted)
# Experimental: (§2) In vitro pharmacokinetic analyses were performed in duplicate using standard methods by WuXi AppTec Co. Ltd. (Shanghai, China). Plasma protein binding was measured by equilibrium dialysis; % bound=(1−[free compound in dialysate]/[total compound in retentate])×100. Plasma stability of 2 uM compounds in clarified freeze-thawed plasma was assessed by LC-MS/MS of supernatants after protein precipitation; 120 min data are reported for studies including 0, 10, 30, 60, and 120 min. Liver microsome stability of 1 uM compounds in liver microsomes (0.5 mg/ml) after 0, 5, 10, 20, 30, 60 min. incubation was assessed by LC/MS/MS of reaction extracts.
# [3] = Plasma protein binding by equilibrium dialysis, mouse; format: in vitro ADME; settings: read-out: Plasma Protein Binding (Bound %) Mouse (converted)
# Experimental: as §2
# [4] = Liver microsome stability, human; format: in vitro ADME; settings: human liver microsomes 0.5 mg/ml, 1 uM compound; read-out: Liver Microsomes (t1/2, minutes) Human
# Experimental: as §2
# [5] = Liver microsome stability, mouse; format: in vitro ADME; settings: mouse liver microsomes 0.5 mg/ml, 1 uM compound; read-out: Liver Microsomes (t1/2, minutes) Mouse
# Experimental: as §2
# [6] = Passive artificial blood brain barrier membrane permeability assay (PAMPA-BBB); format: in vitro ADME; settings: 10 μM compound, 1% porcine brain polar lipid extract/dodecane, room temperature
# Experimental: Passive artificial blood brain barrier membrane permeability assay (PAMPA-BBB) were performed using 150 μL of 10 μM compounds (5% DMSO) added to PVDF membranes pre-coated with 5 μL of 1% brain polar lipid extract (Porcine)/dodecane mixture and incubated for 4 h at room temperature with shaking at 300 rpm. Donor and acceptor samples were analyzed by LC-MS/MS.
# as §1
Compound,EC50 [1] [nM],fraction unbound [2],fraction unbound [3],half-life at 1 uM [4] [min],half-life at 1 uM [5] [min],"Papp at 4 h, 10 μM [6] [×10⁻⁶ cm/s]"
O=C(CCCCCCc1ccccc1)N1CCC(O)CC1 [Formula 7],30.5,0.049,0.043,103,52.5,145
O=C(CCCCCCc1ccccc1)N1CCCC(O)C1 (centres unmarked) [Formula 8],> 10000,0.034,0.041,60.6,22.5,180
O=C(CCCCCc1ccccc1)N1CCC(O)CC1 [Formula 9],> 10000,0.163,0.088,> 145,82.4,96.1
O=C(CCCCCCCc1ccccc1)N1CCC(O)CC1 [Formula 10],12.2,0.014,0.011,64.5,28,143
O=C(NCCCCCc1ccccc1)C1CCC(O)CC1 (centres unmarked) [Formula 26],9.68,0.107,0.071,> 145,102,30.2
O=C(NC1CC1CCCCc1ccccc1)C1CCC(O)CC1 (centres unmarked) [Formula 30A],5.3,,,,,86.8
O=C(NC1CC(CCCc2ccccc2)C1)C1CCC(O)CC1 (centres unmarked) [Formula 31A],9,0.042,0.029,110,224,95.1
O=C(N[C@H]1C[C@@H]1OCCc1ccccc1)[C@H]1CC[C@H](O)CC1 [Formula 32A],10.5,0.535,0.279,> 145,> 145,5.43
O=C(NC1CC1OCc1ccccc1)C1CCC(O)CC1 (centres unmarked) [Formula 33A],10.8,0.626,0.361,> 145,> 145,2.28
O=C(NC1CC1OCCCc1ccccc1)C1CCC(O)CC1 (centres unmarked) [Formula 34A],26.7,0.37,0.221,> 145,> 145,10.5
